Usually pKi stands for −log10 of the Ki, conventionally taken in molar units. Read a high pKi as a small Ki.

pKi: −log10 of the molar value. Counter-ions that a name gives are not always drawn.

Sequence of human FLAP (P20292 whole entry): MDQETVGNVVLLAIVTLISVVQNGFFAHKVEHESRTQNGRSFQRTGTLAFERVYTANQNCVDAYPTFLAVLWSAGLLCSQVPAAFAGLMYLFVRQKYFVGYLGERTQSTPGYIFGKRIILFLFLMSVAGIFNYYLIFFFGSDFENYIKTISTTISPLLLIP

This assay addresses human FLAP (Homo sapiens (Human), UniProt P20292). Briefly: FLAP binding assay (HTRF format). As to conditions: human FLAP-containing Sf-9 membranes, wild type; average of runs. Here is the method:
The ability of the compounds of the present invention to treat a FLAP-mediated disease and/or disorder, or associated symptoms or complications thereof, was determined using the following procedures. Binding assay data represent the average value obtained from two different assay plates, with samples run in duplicate on each plate. Human whole blood assay data represent a single replicate on an assay plate using whole blood from at least one healthy donor.
The assay below is used to test the modulatory activity of compounds against FLAP. Human and mouse FLAP-encoding DNA was amplified by polymerase chain reaction and cloned into pFastBac1 (Invitrogen) with a NH2-terminal 6-His tag for expression in Spodoptera frugiperda (Sf-9) cells. FLAP-containing membranes were prepared as was a FITC-labeled FLAP modulator (3-(3-(tert-butylthio)-1-(4-chlorobenzyl)-5-(quinolin-2-ylmethoxy)-1H-indol-2-yl)-2,2-dimethylpropanoic acid). The FLAP binding assay is performed in HTRF format (homogeneous time resolved fluorescence). […] The reaction is allowed to proceed for two hours after which the plate is read on an Envision plate reader in HTRF mode. Data are expressed as a HTRF ratio.
For human FLAP binding assays, data are analyzed with 3DX Explorer software. […] For analysis, data from multiple runs are averaged and each compound may be tested in 2 to 20 runs. Each run comprises two plates and each plate includes duplicates. Data from each plate is averaged and data are imported into 3DX. The data from multiple runs are aggregated as the average of duplicates of the calculated ratios in order to calculate Ki and IC50 values. Numbers in parentheses are the number of runs for the assay.
Molecule `Cn1ccc(COc2ccc3nc(C4CCCC[C@H]4C(=O)O)n(Cc4cccc(C#N)c4)c3c2)n1` (mixture of isomers) [Example 199, racemic cis-2-{1-(3-Cyanobenzyl)-6-[(1-methyl-1H-pyrazol-3-yl)methoxy]-1H-benzimidazol-2-yl}cyclohexanecarboxylic acid] showed a pKi of about 5.60.

Turning to `Cc1ccc(COc2ccc3nc(C4[C@H](C(=O)O)C4(C)C)n(Cc4cccc(C)c4)c3c2)nc1` (mixture of isomers) [Example 202, racemic cis-2,2-Dimethyl-3-{1-(3-methylbenzyl)-6-[(5-methylpyridin-2-yl)methoxy]-1H-benzimidazol-2-yl}cyclopropanecarboxylic acid], the pKi is about 6.12.

`Cc1ccc(COc2ccc3nc(C4[C@H](C(=O)O)C4(C)C)n(Cc4ccccc4C)c3c2)nc1` (mixture of isomers) [Example 210, racemic cis-2,2-Dimethyl-3-{1-(2-methylbenzyl)-6-[(5-methylpyridin-2-yl)methoxy]-1H-benzimidazol-2-yl}cyclopropanecarboxylic acid] had a pKi of about 5.76.

As for `Cc1ccc(COc2ccc3nc(C4CCCC[C@H]4C(=O)O)n(Cc4cccc(Br)c4)c3c2)nc1` (mixture of isomers) [Example 217, racemic trans-2-{1-(3-Bromobenzyl)-6-[(5-methylpyridin-2-yl)methoxy]-1H-benzimidazol-2-yl}cyclohexanecarboxylic acid], the pKi was 7.22.

`Cn1ccc(COc2ccc3nc(C4CCCC[C@H]4C(=O)O)n(Cc4cccc(Br)c4)c3c2)n1` (single isomer, unassigned) [Example 198, (1R*,2S*)-2-{1-(3-Bromobenzyl)-6-[(1-methyl-1H-pyrazol-3-yl)methoxy]-1H-benzimidazol-2-yl}cyclohexanecarboxylic acid] had a pKi of under 5.00.

`CCC(CC)(Cc1nc2ccc(OCc3ccc(C)cn3)cc2n1Cc1cccc(-c2cnc(OC)nc2)c1)C(=O)O` [Example 196, 2-Ethyl-2-({1-[3-(2-methoxypyrimidin-5-yl)benzyl]-6-[(5-methylpyridin-2-yl)methoxy]-1H-benzimidazol-2-yl}methyl)butanoic acid]: the pKi was about 6.30.

`CCC(CC)(Cc1nc2ccc(OCc3ccn(C)n3)cc2n1Cc1cccc(-c2cnc(OC)nc2)c1)C(=O)O` [Example 213, 2-Ethyl-2-({1-[3-(2-methoxypyrimidin-5-yl)benzyl]-6-[(1-methyl-1H-pyrazol-3-yl)methoxy]-1H-benzimidazol-2-yl}methyl)butanoic acid] had a pKi of about 6.03.

Consider `CCC(CC)(Cc1nc2ccc(OCc3ccn(C)n3)cc2n1Cc1ccc(-c2cnc(OC)nc2)cc1F)C(=O)O` [Example 214, 2-Ethyl-2-({1-[2-fluoro-4-(2-methoxypyrimidin-5-yl)benzyl]-6-[(1-methyl-1H-pyrazol-3-yl)methoxy]-1H-benzimidazol-2-yl}methyl)butanoic acid], for which the pKi is about 5.60.

In the case of `CCC(CC)(Cc1nc2ccc(OCc3ccn(C)n3)cc2n1Cc1ccc(N2CCC(F)(F)C2)cc1)C(=O)O` [Example 216, 2-({1-[4-(3,3-Difluoropyrrolidin-1-yl)benzyl]-6-[(1-methyl-1H-pyrazol-3-yl)methoxy]-1H-benzimidazol-2-yl}methyl)-2-ethylbutanoic acid], the pKi was about 6.74.

Molecule `Cc1ccc(COc2ccc3nc(CC(C)(C)C(=O)O)n(Cc4cc(Br)ccc4F)c3c2)nc1` [Example 225, 3-{1-(5-Bromo-2-fluorobenzyl)-6-[(5-methylpyridin-2-yl)methoxy]-1H-benzimidazol-2-yl}-2,2-dimethylpropanoic acid] gave a negative logarithm of the Ki (pKi) of about 6.06.

The molecule `Cc1ccc(COc2ccc3nc(CC(C)(C)C(=O)O)n(Cc4cccc(Br)c4)c3c2)nc1` [Example 232, 3-{1-(3-Bromobenzyl)-6-[(5-methylpyridin-2-yl)methoxy]-1H-benzimidazol-2-yl}-2,2-dimethylpropanoic acid as the trifluoroacetic acid salt] gave a pKi of about 6.12.

The values are drawn from patent publication US9695149B2, “1,2,6-substituted benzimidazoles as flap modulators” (JANSSEN PHARMACEUTICA NV, priority 2013, dated 2017).
